Data from the supplement of paper PMC10307832.

Columns and labels:
Assay in all cases: relative viability (nuclei count vs DMSO), 5 days (fraction); higher = more cells survive
CUDC-101 + Linsitinib = compound: C#Cc1cccc(Nc2ncnc3cc(OC)c(OCCCCCCC(=O)NO)cc23)c1 [CUDC-101] + C[C@]1(O)C[C@@H](c2nc(-c3ccc4ccc(-c5ccccc5)nc4c3)c3c(N)nccn32)C1 [Linsitinib] (partner 1 µM)
Procedure, shortened: (§1)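 Lung cancer cell lines in 1536-well plates were dosed by pin tool the day after seeding, either with one drug alone or with a fixed anchor-drug dose plus five library-drug doses (not always all listed) in √10 steps. After 5 days, cells were fixed and their nuclei stained in one step (final 0.05% Triton X-100, 1% formaldehyde, 1 ug/ml Hoechst), then counted on 4× images. Relative viability is the nuclei count in treated wells divided by that in vehicle wells. Values are medians of duplicate plates.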

[1] = compound: C1=CC=C2C(=C1)N=C(S2)C(C#N)C3=NC(=NC=C3)NCCC4=CN=CC=C4 + CC(=O)Nc1cccc(-n2c(=O)n(C3CC3)c(=O)c3c(Nc4ccc(I)cc4F)n(C)c(=O)c(C)c32)c1 [Trametinib] (partner 0.02 µM)
Procedure, shortened: as §1

[2] = compound: C1=CC=C2C(=C1)N=C(S2)C(C#N)C3=NC(=NC=C3)NCCC4=CN=CC=C4 + CS(=O)(=O)CCNCc1ccc(-c2ccc3ncnc(Nc4ccc(OCc5cccc(F)c5)c(Cl)c4)c3c2)o1 [Lapatinib] (partner 2 µM)
Procedure, shortened: as §1

[3] = compound: C1=CC=C2C(=C1)N=C(S2)C(C#N)C3=NC(=NC=C3)NCCC4=CN=CC=C4 + C[C@@H](Oc1cc(-c2cnn(C3CCNCC3)c2)cnc1N)c1c(Cl)ccc(F)c1Cl [Crizotinib] (partner 1 µM)
Procedure, shortened: as §1

Question: Which relative viability (CUDC-101 + Linsitinib; first compound 0.01 µM) does the source give for UMC-11 here?
Answer: 1.07

Question: What about the relative viability (CUDC-101 + Linsitinib; first compound 0.03162 µM) of the same cell line?
Answer: 0.97

Question: And the relative viability (CUDC-101 + Linsitinib; first compound 0.1 µM)?
Answer: 1.03

Question: And the relative viability (CUDC-101 + Linsitinib; first compound 0.3162 µM)?
Answer: 0.864

Question: And the relative viability (CUDC-101 + Linsitinib; first compound 1 µM)?
Answer: 0.208

Question: And the relative viability ([1]; first compound 0.01581 µM)?
Answer: 0.741

Question: What about the relative viability ([1]; first compound 0.05 µM) of the same cell line?
Answer: 0.664

Question: And the relative viability ([1]; first compound 0.1581 µM)?
Answer: 0.839

Question: What about the relative viability ([1]; first compound 0.5 µM) of the same cell line?
Answer: 0.831

Question: What about the relative viability ([2]; first compound 0.005 µM) of the same cell line?
Answer: 0.902

Question: What about the relative viability ([2]; first compound 0.01581 µM) of the same cell line?
Answer: 0.877

Question: What about the relative viability ([2]; first compound 0.05 µM) of the same cell line?
Answer: 0.843

Question: And the relative viability ([2]; first compound 0.1581 µM)?
Answer: 1.59

Question: What about the relative viability ([2]; first compound 0.5 µM) of the same cell line?
Answer: 0.901

Question: What about the relative viability ([3]; first compound 0.005 µM) of the same cell line?
Answer: 0.487

Question: And the relative viability ([3]; first compound 0.01581 µM)?
Answer: 0.561

Question: And the relative viability ([3]; first compound 0.05 µM)?
Answer: 0.602

Question: What about the relative viability ([3]; first compound 0.1581 µM) of the same cell line?
Answer: 0.654

Question: And the relative viability ([3]; first compound 0.5 µM)?
Answer: 0.5
